Source: publication PMC12677699, “Utilizing Proteolytic‐Resistant Nano‐Short Peptide Based on Naphthyl Tail‐Anchored to Combat Bacterial Infections” (Advanced Science, 2025)
Values after ≈ are worked out from the molar mass of the structure shown. Non-standard residues stand in square brackets, D forms with d. Residues, ends and D or L forms follow the SMILES beside them. ξ: configuration not given here. ξAhp(2) = CCCCCC(N)C(=O)O

Key:
E. coli ATCC 25922 [1] = assay: Respiratory chain dehydrogenase activity, RT reduction; format: cell-based, Escherichia coli; details: 16 × 10^−6 M, E. coli ATCC 25922, 1.5 h, 37 °C; n = 3
Experimental: (§1) The inhibitory effects of nano‐short peptides on RCD activity in bacteria were evaluated using an RT reduction assay.^[ [58] ^] Logarithmic growth stage E. coli ATCC 25922 and S. aureus ATCC 29213 bacterial solutions were diluted to OD600 = 0.4 in MHB liquid medium. A mixed solution was prepared by combining RT (1 mg mL^−1), glucose (100 × 10^−3 M), and Tris‐HCl buffer (50 × 10^−3 M, pH 8.6) in equal volumes (1:1:1). In 96‐well microplates, serial dilutions of nano‐short peptides were prepared using the mixed solution, followed by addition of an equal volume of bacterial suspension. Following incubation at 37 °C for 1.5 h, the absorbance at 492 nm was measured using a microplate reader, with untreated bacterial suspensions serving as controls.

E. faecalis 29212 = format: cell-based, Enterococcus faecalis
Experimental: (§2) The MIC values of the nano‐short peptides were determined according to standard protocols.^[ [63] ^] Bacterial strains were revived from cryopreservation and cultured in Mueller–Hinton broth (MHB) to logarithmic growth phase, then diluted to a final density of 0.5–1 × 10⁶ CFU mL^−1. Serial dilutions of the nano‐short peptides were prepared in 0.2% bovine serum albumin (BSA) using a 96‐well plate format. Equal volumes of peptide solutions and bacterial suspensions were combined and incubated at 37 °C for 20–22 h. Bacterial growth was assessed by measuring absorbance at 492 nm, with MHB alone (negative control) and untreated bacterial suspension (positive control) included for reference.

[2] = Critical aggregation concentration, 1,8-ANS fluorescence; format: physicochemical; details: 1,8-ANS 1 × 10^−6 M, peptide 2-256 × 10^−6 M in deionized water, 1 h, ex 360 nm, em 420–670 nm, linear fitting of fluorescence intensities
Experimental: The self‐assembly behavior of nano‐short peptides was characterized by determining the CAC using 1,8‐ANS as a hydrophobic fluorescent probe.^[ [32] ^] Serial peptide dilutions (2‐256 × 10^−6 M in 50 µL deionized water) were prepared in 96‐well plates. 1,8‐ANS powder was solubilized in dimethylformamide (DMF) and added to the 96‐well plates (final concentration of 1 × 10^−6 M), and deionized water solution containing 1,8‐ANS was used as a blank control. After incubation for 1 h, the fluorescence emission spectra were continuously monitored with a microplate reader (Tecan Infinite200 Pro, λ excitation = 360 nm, λ emission = 420–670 nm). CAC values were determined by linear fitting of representative fluorescence intensities.

MRSA 43300 = format: cell-based, Methicillin-Resistant Staphylococcus aureus
Experimental: as §2

S. aureus ATCC 29213 [3] = assay: Respiratory chain dehydrogenase activity, RT reduction; format: cell-based, Staphylococcus aureus; details: 16 × 10^−6 M, S. aureus ATCC 29213, 1.5 h, 37 °C; n = 3
Experimental: as §1

S. pullorum C7913 = format: cell-based
Experimental: as §2

MRSA = assay: MRSA-mediated skin infection model; format: in vivo, mouse; set-up: bacterial load in skin tissue, Day 5 / bacterial load in skin tissue, Day 9: dose or concentration left out as unconfirmed; details: MRSA wound, n = 8
Source text: The mouse skin infection model was based on previous research with some modifications.^[ [62] ^] The mice utilized in the […] were consistent with those employed in the in vivo toxicity assessment. Forty‐eight mice were randomly divided into three groups after a 3‐day pre‐feeding period, including control, N4‐treated and MRSA‐infected groups. Initially, the dorsal regions of the mice were depilated (Day ‐1). On the following day (Day 0), circular incisions were made on the dorsal surfaces, and 10 µL of saline‐diluted MRSA suspension (OD600 = 0.2) was applied to the wounds of the mice in N4‐treated and MRSA‐infected groups, while an equivalent volume of saline was administered to the wounds in the control mice. […] The above treatments were repeated after […] (Day 3). Throughout the experimental period, representative images of the wounds were captured.
Mice were euthanized on Days 5 and 9 post‐infection, and skin tissue homogenates were quantified for bacterial load. Subsequently, the supernatants of skin tissue homogenates from mice on Day 9 were selected for the detection of inflammatory factors, and wound tissues were collected for histological, Masson and immunofluorescence analyses.

E. coli ATCC 25922 [4] = assay: ROS generation, DCFH-DA; format: cell-based, Escherichia coli; details: 16 × 10^−6 M, E. coli ATCC 25922, DCFH-DA, 1 h; n = 3
Experimental: ROS accumulation levels were assessed by the fluorescent probe DCFH‐DA.^[ [63] ^] Logarithmic growth stage E. coli ATCC 25922 and S. aureus ATCC 29213 bacterial solutions were diluted to OD600 = 0.4 in PBS (pH = 7.4, 10 × 10^−3 M), followed by incubation with DCFH‐DA final concentration of 10 × 10^−6 M) for 30 min at 37 °C. Subsequently, the bacterial suspensions were then mixed with different concentrations of nano‐short peptides dilutions in equal volumes in a 96‐well plate and continued to incubate for 1 h (37 °C). Finally, the fluorescence intensity was measured using a microplate reader (excitation λ = 488 nm, emission λ = 525 nm).

S. aureus ATCC 29213 [5] = assay: Intracellular ATP determination; format: cell-based, Staphylococcus aureus; details: 16 × 10^−6 M, S. aureus ATCC 29213, 1 h, 37 °C; n = 3
Experimental: The intracellular ATP levels of E. coli ATCC 25922 and S. aureus ATCC 29213 after nano‐short peptides treatment were detected using an Enhanced ATP Assay Kit.^[ [59] ^] Logarithmic growth stage E. coli ATCC 25922 and S. aureus ATCC 29213 bacterial solutions were diluted to OD600 = 0.4 in MHB liquid medium. Then, the bacterial dilutions were co‐incubated with different concentrations of nano‐short peptides at 37 °C for 1 h. After incubation, the bacterial dilutions were centrifuged (12 000 rpm, 5 min, 4 °C) to pellet the cells. The resulting bacterial pellets were processed according to the steps in the kit. Finally, the chemiluminescence was detected by a microplate reader.

P. aeruginosa 27853 = format: cell-based, Pseudomonas aeruginosa
Experimental: as §2

P. aeruginosa PAO1 = format: cell-based, Pseudomonas aeruginosa
Experimental: as §2

[6] = Day 9, vs infected group, p < 0.05

SMILES | RCD activity reduced to (E. coli ATCC 25922 [1]) [%] | MIC, E. faecalis 29212 (E. faecalis 29212) [µM] | critical aggregation concentration (CAC) [2] [µM] | MIC, MRSA 43300 (MRSA 43300) [µM] | RCD activity reduced to (S. aureus ATCC 29213 [3]) [%] | MIC, S. pullorum C7913 (S. pullorum C7913) [µM] | bacterial load in skin tissue, Day 9 (MRSA; 10 µL of N4, twice a day on Day 1 and Day 3, topical, infected group 6.89) [log10 CFU g^−1] | bacterial load in skin tissue, Day 5 (MRSA; 10 µL of N4, twice a day on Day 1 and Day 3, topical, infected group 7.1) [log10 CFU g^−1] | anti-inflammatory cytokine IL-10 in supernatant of skin tissues (MRSA; [6]) | pro-inflammatory cytokines (IL-1β, IL-6, TNF-α) in supernatant of skin tissues (MRSA; [6]) | increase of ROS content vs untreated bacteria (E. coli ATCC 25922 [4]) [fold] | ATP levels decreased to (S. aureus ATCC 29213 [5]) [%] | MIC, P. aeruginosa 27853 (P. aeruginosa 27853) [µM] | MIC, P. aeruginosa PAO1 (P. aeruginosa PAO1) [µM]
N=C(N)NCCC[C@H](NC(=O)[C@@H](CCCNC(=N)N)NC(=O)[C@H](Cc1cccc2ccccc12)NC(=O)[C@H](Cc1cccc2ccccc12)NC(=O)[C@H](Cc1cccc2ccccc12)NC(=O)[C@@H](N)Cc1cccc2ccccc12)C(=O)N[C@@H](CCCNC(=N)N)C(=O)N1CCC[C@H]1C(=O)O (stereo in doubt) [Peptide N4] | 60.10 | 4 (≈ 5.49 µg/mL) | 5.78 | 4 (≈ 5.49 µg/mL) | 18.84 | 4 (≈ 5.49 µg/mL) | 6.12 | 6.59 | significant increase | significant decrease | 2.26 | 10.8 | 8 (≈ 11 µg/mL) | 4 (≈ 5.49 µg/mL)
CCCCCC(N)C(=O)NC(CCCCC)C(=O)NC(CCCCC)C(=O)NC(CCCCC)C(=O)N[C@H](CCCNC(=N)N)C(=O)N[C@@H](CCCNC(=N)N)C(=O)N[C@@H](CCCNC(=N)N)C(=O)N1CCC[C@H]1C(=O)O (some centres unmarked) [Peptide B4] (H-[ξAhp(2)][ξAhp(2)][ξAhp(2)][ξAhp(2)][dR]RRP-OH; N-terminus assumed) | 70.75 | 32 (≈ 35 µg/mL) | – | 16 (≈ 17.5 µg/mL) | 34.12 | 16 (≈ 17.5 µg/mL) | – | – | – | – | 1.51 | 71.18 | 16 (≈ 17.5 µg/mL) | 256 (≈ 280 µg/mL)
